One data set has as its target T1, HDAC6 (Homo sapiens, UniProt Q9UBN7).
T1 construct: purchased Sigma Aldrich or Reaction Biology Corporation
T1 sequence (Q9UBN7 1-1215): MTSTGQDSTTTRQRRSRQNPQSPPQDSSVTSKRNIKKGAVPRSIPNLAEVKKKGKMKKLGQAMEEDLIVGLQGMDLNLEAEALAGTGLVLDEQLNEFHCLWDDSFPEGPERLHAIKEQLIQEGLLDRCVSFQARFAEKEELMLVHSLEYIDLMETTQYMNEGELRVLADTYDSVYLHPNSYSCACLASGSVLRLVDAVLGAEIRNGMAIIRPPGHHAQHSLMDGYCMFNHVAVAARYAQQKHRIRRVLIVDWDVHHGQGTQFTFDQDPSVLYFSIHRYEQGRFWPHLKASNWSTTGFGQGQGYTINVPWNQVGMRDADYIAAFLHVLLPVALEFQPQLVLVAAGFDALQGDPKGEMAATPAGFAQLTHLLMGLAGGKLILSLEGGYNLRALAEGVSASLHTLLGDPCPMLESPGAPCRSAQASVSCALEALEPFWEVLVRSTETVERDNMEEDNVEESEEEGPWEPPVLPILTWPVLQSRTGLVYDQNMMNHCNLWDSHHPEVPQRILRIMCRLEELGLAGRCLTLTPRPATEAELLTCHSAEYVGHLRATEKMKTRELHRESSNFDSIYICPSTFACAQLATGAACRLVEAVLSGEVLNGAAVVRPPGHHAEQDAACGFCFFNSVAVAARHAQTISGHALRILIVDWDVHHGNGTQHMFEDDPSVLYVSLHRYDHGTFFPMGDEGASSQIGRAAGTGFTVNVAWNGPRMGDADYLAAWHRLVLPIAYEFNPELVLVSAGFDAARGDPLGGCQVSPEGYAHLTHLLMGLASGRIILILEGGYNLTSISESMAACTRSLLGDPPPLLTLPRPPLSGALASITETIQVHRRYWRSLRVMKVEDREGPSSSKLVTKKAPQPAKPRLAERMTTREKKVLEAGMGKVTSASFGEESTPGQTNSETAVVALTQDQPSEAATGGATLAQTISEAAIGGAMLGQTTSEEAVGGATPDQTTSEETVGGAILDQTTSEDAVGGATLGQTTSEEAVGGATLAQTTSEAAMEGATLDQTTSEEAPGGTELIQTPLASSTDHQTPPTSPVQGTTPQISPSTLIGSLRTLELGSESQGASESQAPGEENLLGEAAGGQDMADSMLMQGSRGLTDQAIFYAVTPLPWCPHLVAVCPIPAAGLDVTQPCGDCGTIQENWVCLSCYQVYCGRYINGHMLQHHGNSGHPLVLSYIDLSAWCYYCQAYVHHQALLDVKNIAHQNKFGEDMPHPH
The experiment in a line: In vitro enzymatic assay HDAC6 (Fluor de Lys). It is filed as biochemical.

Another data set deals with T2, HDAC2 (Homo sapiens, UniProt Q92769).
T2 construct: purchased Sigma Aldrich or Reaction Biology Corporation
T2 sequence (Q92769 whole entry): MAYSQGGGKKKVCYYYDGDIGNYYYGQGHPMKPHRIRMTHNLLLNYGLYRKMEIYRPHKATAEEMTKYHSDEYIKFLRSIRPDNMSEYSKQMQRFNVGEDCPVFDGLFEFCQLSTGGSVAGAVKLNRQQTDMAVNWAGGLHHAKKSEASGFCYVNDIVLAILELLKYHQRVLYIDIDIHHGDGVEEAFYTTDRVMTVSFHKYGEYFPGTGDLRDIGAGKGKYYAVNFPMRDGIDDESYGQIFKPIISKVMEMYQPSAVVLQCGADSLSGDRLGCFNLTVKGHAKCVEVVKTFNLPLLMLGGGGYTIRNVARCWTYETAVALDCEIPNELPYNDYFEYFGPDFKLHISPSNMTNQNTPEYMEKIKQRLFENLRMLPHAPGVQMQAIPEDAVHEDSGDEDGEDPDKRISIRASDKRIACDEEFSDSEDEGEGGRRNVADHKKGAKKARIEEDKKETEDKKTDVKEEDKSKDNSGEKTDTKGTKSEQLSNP
Kind of data set: In vitro enzymatic assay HDAC2 (Fluor de Lys). Type of data set: biochemical. As to conditions: average of at least 2 independent experiments in duplicates ± SEM.

The target in a further data set is T3, HDAC4 (Homo sapiens, UniProt P56524).
T3 construct: purchased Sigma Aldrich or Reaction Biology Corporation
T3 sequence (P56524 whole entry): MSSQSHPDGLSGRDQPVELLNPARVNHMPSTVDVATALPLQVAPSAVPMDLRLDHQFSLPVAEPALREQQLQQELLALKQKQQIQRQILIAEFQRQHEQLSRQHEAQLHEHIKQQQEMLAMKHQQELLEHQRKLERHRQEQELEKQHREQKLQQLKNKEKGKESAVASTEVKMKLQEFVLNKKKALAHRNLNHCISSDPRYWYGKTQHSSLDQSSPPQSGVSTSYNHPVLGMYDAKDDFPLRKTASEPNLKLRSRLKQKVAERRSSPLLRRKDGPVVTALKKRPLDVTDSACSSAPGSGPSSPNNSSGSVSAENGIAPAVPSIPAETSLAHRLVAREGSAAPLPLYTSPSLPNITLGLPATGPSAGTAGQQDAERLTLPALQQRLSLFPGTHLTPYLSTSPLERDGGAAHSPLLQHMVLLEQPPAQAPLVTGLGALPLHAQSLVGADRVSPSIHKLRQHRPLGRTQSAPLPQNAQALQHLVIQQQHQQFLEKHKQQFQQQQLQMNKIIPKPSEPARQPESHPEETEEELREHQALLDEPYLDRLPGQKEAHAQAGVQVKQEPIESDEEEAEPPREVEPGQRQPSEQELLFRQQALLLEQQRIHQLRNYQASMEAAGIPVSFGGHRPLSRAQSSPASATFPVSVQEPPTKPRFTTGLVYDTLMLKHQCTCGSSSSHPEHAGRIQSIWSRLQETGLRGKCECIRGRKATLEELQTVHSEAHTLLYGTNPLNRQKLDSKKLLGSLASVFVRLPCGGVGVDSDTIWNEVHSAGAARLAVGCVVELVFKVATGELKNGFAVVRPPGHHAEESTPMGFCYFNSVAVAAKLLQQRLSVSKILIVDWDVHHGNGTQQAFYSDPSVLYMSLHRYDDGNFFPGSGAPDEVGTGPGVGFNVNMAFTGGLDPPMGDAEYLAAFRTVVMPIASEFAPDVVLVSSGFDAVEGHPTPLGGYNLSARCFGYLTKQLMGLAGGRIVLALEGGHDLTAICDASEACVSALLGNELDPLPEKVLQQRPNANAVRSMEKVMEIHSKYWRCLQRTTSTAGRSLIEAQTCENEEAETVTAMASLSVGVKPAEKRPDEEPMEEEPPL
Kind of data set: In vitro enzymatic assay HDAC4 (Fluor de Lys). The settings on record: average of at least 2 independent experiments in duplicates ± SEM. Type of data set: biochemical.

The next data set is described as follows: PAMPA-BBB. It is filed as in vitro ADME. On the procedure: The PAMPA experiment was performed according to the PAMPA-BBB method described by Di et al.[46]. Test compounds were dissolved at 20 mM in DMSO and then diluted 200 times using a buffer solution at pH 7.4 (prepared according to the Geigy table, containing 54 mM Na2HPO4 and 13 mM KH2PO4). The resulting solutions, containing the compounds at 100 μM (0.5% DMSO), represented the donor solutions at the initial time. A total of 280 μL of the donor solution were added in each well of a Teflon® 96-well microplate (Millipore MSSACCEPTOR) forming the donor compartments. Each well of a hydrophobic polyvinylidene fluoride (PVDF) 96-well microtitre filter plate (Multiscreen® MAIPN4550, 70% porosity, pore diameter 0.45 μm, cross-sectional area 0.3 cm^2) was impregnated with 4 μL of a polar brain lipids solution (20 mg/mL in dodecane, PBL obtained from Avanti Polar Lipids), placed under a fume hood and subjected to constant shaking at 75 rpm for approximately 10 min to homogeneously lay the artificial membrane. […] Each tested compound was analysed in triplicate. The effective passive permeability value (Pe) was calculated according the two-way flux equations, obtained from the Fick’s law[47]. The calculated effective passive permeability values Pe were considered relevant only if RSD < 15% as quality control was fulfilled. […]
On the technique in general: The PAMPA barrier holds no transporters, so it reflects passive diffusion.

For orientation: IC50 means the point on the concentration scale where inhibition reaches its midpoint. Low values mean inhibition by little substance, high ones a need for much substance. The inhibition is the share of the control response that was lost under treatment.

As for `NNC(=O)c1ccc(COc2ccccc2Cl)cc1` [AK-14], the figures for the 50% inhibitory concentration (IC50) on HDAC6 (average of at least 2 independent experiments in duplicates ± SEM), on HDAC2 and against HDAC4 were 12.8 ± 5.4 µM, > 1000 µM and > 300 µM, respectively. For the same molecule, the inhibition at 100 µM at HDAC6 (read-out: HDAC6 % of inhibition at 100 µM) amounted to 70.7 ± 6%. Also, the Papp at 18 h, 100 μM in the data set “PAMPA-BBB” (PAMPA, pH 7.4, 100 μM donor, 18 hours, room temperature, read-out: effective passive permeability Pe (PAMPA-BBB)) is 6.5 ×10⁻⁶ cm/s. In addition, the PAMPA-BBB classification entry in “PAMPA-BBB” (pH 7.4) is reported as “CNS +”.

(Values after article PMC4941420, “A Rational Approach for the Identification of Non-Hydroxamate HDAC6-Selective Inhibitors” (Scientific Reports, 2016).)
